According to patent US10052359B2, “Composition for enhancing memory and learning function and/or cognitive function” (KIRIN KABUSHIKI KAISHA, priority 2014, dated 2018):
Entries after “also recorded” stand apart in the source; their conditions may differ.

These compounds were tested on scopolamine model of poor memory (assay: Y-maze test (spontaneous alternation behavior) in mice given scopolamine). Conditions: 1 μmol/kg to mice; FIG. 9A, 9B.
Format: in vivo
Procedure: FIG. 1A illustrates a summary of methods of evaluating the memory and learning function and the cognitive function. To 6-week-old male CD-1 mice, 1 mg/kg of the peptide extract or 0.1-3 μmol/kg of a synthetic peptide is orally administered forcibly into stomach and 40 minutes later 0.80 mg/kg of scopolamine hydrochloride was administered intraperitoneally to cause memory impairment. 20 minutes after the intraperitoneal administration of scopolamine, the Y-maze test was conducted to evaluate the spontaneous alternation behavior.
Mice originally have a habit of selecting a route different from the route selected immediately before. Therefore a mouse placed in a Y-maze having 3 arms equivalent in width, length, and the like normally enters the arm different from the arm that the mouse entered immediately before. The Y-maze test is a test to evaluate the short-term memory using the habit of mice.
In the Y-maze test, a Y-maze was used as an experimental apparatus having 3 arms each connected at an angle of 120 degrees and each having a length of 25 cm, a wall high of 20 cm, and a floor width of 5 cm.
Mice were placed in the tip of one of the aims in the Y-maze and the orders of the arms that the mice entered when the mice were allowed to search freely for 8 minutes were recorded. The spontaneous alternation behavior is defined as the behavior in which a mouse selects and enters the different arm three times consecutively. […] 10 mice per group were used for the experiment and the average and the standard error were determined. [Examination of Enzymatic Agent]

| Compound | enhancing effect on the memory and learning function |
| --- | --- |
| PVEP (listed as Bos taurus) | had the enhancing effect on the memory and learning function at the similar level to that of the original amino acid sequence KEMPFPKYPVEP |

Same assay, conditions: synthetic peptide 0.1-3 μmol/kg orally; scopolamine 0.80 mg/kg i.p.

| Compound | enhancing effect on the memory and learning function and the cognitive function (spontaneous alternation behavior rate) |
| --- | --- |
| N[C@@H](Cc1c[nH]c2ccccc12)C(=O)O [W, tryptophan, reference compound] | had no effects |
| AVPYP (listed as Bos taurus) [casein-derived peptide, tested as synthetic peptide] | enhancement activity on the memory and learning function and the cognitive function |
| GTWY (listed as Bos taurus) [whey-derived peptide, tested as synthetic peptide] | exhibited the activity of enhancing the memory and learning function and the cognitive function in a concentration-dependent manner |
| GYGGVSLP (listed as Bos taurus) [whey-derived peptide, tested as synthetic peptide] | exhibited the activity of enhancing the memory and learning function and the cognitive function in a concentration-dependent manner |
| KEMPFPKYPVEP (listed as Bos taurus) [casein-derived peptide of 12 amino acids, tested as synthetic peptide] | enhancement activity on the memory and learning function and the cognitive function |
| KPTPEGDLEI (listed as Bos taurus) [whey-derived peptide, tested as synthetic peptide] | exhibited the activity of enhancing the memory and learning function and the cognitive function in a concentration-dependent manner |
| SLPQ (listed as Bos taurus) [casein-derived peptide, tested as synthetic peptide] | enhancement activity on the memory and learning function and the cognitive function |
| TWY (listed as Bos taurus) [whey-derived peptide, tested as synthetic peptide] | exhibited the activity of enhancing the memory and learning function and the cognitive function in a concentration-dependent manner |
| TWYS (listed as Bos taurus) [whey-derived peptide, tested as synthetic peptide] | exhibited the activity of enhancing the memory and learning function and the cognitive function in a concentration-dependent manner |
| VAGTWYS (listed as Bos taurus) [whey-derived peptide, tested as synthetic peptide] | exhibited the activity of enhancing the memory and learning function and the cognitive function in a concentration-dependent manner |
| VSLPEW (listed as Bos taurus) [whey-derived peptide, tested as synthetic peptide] | exhibited the activity of enhancing the memory and learning function and the cognitive function in a concentration-dependent manner |
| YPE (listed as Bos taurus) [casein-derived peptide, tested as synthetic peptide] | enhancement activity on the memory and learning function and the cognitive function |
| methionine-tryptophan [MW, reference compound] | had no enhancing effect on the memory and learning function and the cognitive function |
| tryptophan-methionine [WM] | found to have an enhancing effect on the memory and learning function and the cognition function in a concentration-dependent manner; also recorded: enhancement activity on the memory and learning function and the cognitive function |
| tryptophan-tyrosine [WY] | found to have an enhancing effect on the memory and learning function and the cognition function in a concentration-dependent manner; also recorded: enhancement activity on the memory and learning function and the cognitive function |
| tyrosine-tryptophan [YW, reference compound] | had no enhancing effect on the memory and learning function and the cognitive function |

What follows are compounds tested on TNF-α (assay: Anti-inflammatory activity of isolated microglia (TNF-α in supernatant by ELISA after LPS and IFNγ)). Conditions: 12 h pretreatment with 0, 25, 50 or 100 μM synthetic peptide; then LPS 5 ng/ml and IFNγ 0.5 ng/ml for 12 h; FIG. 11.
Format: cell-based, mouse
Procedure: Brain tissue homogenate is obtained by treating the brain extirpated from a mouse with papain. After stopping the enzymatic reaction, microglia were allowed to interact with a pan-microglia marker, CD11b antibody (produced from Miltenyi Biotec) magnetically-labeled with microbeads and isolated by the MACS method.
Isolated microglia are cultured for 12 hours in a medium supplemented with various peptides. 5 ng/ml lipopolysaccharide (LPS, SIGMA-ALDRICH) and 0.5 ng/ml interferon γ(IFNγ, R & D systems) were then added and culture was continued for 12 hours. TNF-α contained in the culture supernatant was quantified with an ELISA kit (eBiosceince).
Peptides were synthesized based on the obtained amino acid sequences and the anti-inflammatory effect was evaluated. The isolated microglia are pretreated in a medium supplemented with 0, 25, 50, or 100 μM of a synthetic peptide ([…] (SEQ ID NO: 1), […] (SEQ ID NO: 17), AVPYP (SEQ ID NO: 6), SLPQ (SEQ ID NO: 9), YPE (SEQ ID NO: 12), WM (SEQ ID NO: 14), or WY (SEQ In NO: 13)) for 12 hours. As described above, LPS and IFN-γ were added to the medium and culture was continued for 12 hours. INF-α contained in the culture supernatant was measured by ELISA. The result is illustrated in FIG. 11. In FIG. 11, “CM1” indicates the result of […] (SEQ ID NO: 1), “CM2” indicates the result of […] […]

| Compound | production of TNF-α (anti-inflammatory effect) |
| --- | --- |
| tryptophan-tyrosine [WY] | particularly high anti-inflammatory effect |
